One experiment has as its system TNFα. The experiment can be described thus: cells. Conditions: LPS-stimulated human monocytes, read-out: EC50 TNF. It counts as cell-based, human.
The next experiment has as its target IRAK4 enzyme (Homo sapiens (Human), UniProt Q9NWZ3). The experiment is described as follows: biochemical. Conditions: IRAK4 enzyme, 500 μM ATP. It counts as biochemical.
[1] abbreviates: Homo sapiens, Monocyte, TNFα content.

pEC50, pIC50: −log10 of the molar value. Like-named read-outs stand apart in the source and are kept apart here.

IRAK4 enzyme, sequence (Q9NWZ3 whole entry): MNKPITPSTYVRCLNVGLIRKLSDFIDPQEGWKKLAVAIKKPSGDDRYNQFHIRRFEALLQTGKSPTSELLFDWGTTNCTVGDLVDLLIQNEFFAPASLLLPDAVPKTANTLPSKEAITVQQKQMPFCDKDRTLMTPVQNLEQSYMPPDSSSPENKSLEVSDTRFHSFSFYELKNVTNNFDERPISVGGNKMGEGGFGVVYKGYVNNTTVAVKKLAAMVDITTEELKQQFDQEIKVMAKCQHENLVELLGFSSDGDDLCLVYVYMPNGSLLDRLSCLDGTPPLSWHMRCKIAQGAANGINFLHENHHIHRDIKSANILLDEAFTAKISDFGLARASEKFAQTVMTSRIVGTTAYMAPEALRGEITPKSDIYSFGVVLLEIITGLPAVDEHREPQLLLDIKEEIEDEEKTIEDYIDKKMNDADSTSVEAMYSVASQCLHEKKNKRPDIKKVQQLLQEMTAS

Regarding “6-(3-cyanopyrrolo[1,2- b]pyridazin-7-yl)-N-((R)- 2-fluoro-3-hydroxy-3- methylbutyl)-4-(((1s,3S)-3- hydroxyadamantan-1- yl)amino)nicotinamide [Example 525]”, the pEC50 with TNFα (TNFα content) was 7.96.

“6-(3-cyanopyrrolo[1,2-b]pyridazin-7-yl)-N-(2-(hydroxymethyl)cyclopropyl)-4-(isopropylamino)nicotinamide [Example 19]”: in the experiment with TNFα (TNFα content), the negative-log EC50 (pEC50) is 6.03. As to `CC(C)Nc1cc(-c2ccc3cc(C#N)cnn23)ncc1C(=O)NC1CC1CO` (single isomer, unassigned) [Example 18, 6-(3-cyanopyrrolo[1,2-b]pyridazin-7-yl)-N-(2-(hydroxymethyl)cyclopropyl)-4-(isopropylamino)nicotinamide], the pEC50 with TNFα (setting [1]) is 6.12. At IRAK4 enzyme (TR-FRET), the negative-log IC50 (pIC50) was 8.05. `CC(C)(O)[C@H](F)CNC(=O)c1cnc(-c2ccc3cc(C#N)cnn23)cc1NC1C2CNCC1C2` (single isomer, unassigned) [Example 25]: in the experiment on TNFα (setting [1]), the negative logarithm of the EC50 (pEC50) is 6.94. Moreover, the negative logarithm of the IC50 (pIC50) at IRAK4 enzyme (TR-FRET) is 8.70.

`CC(C)(O)[C@H](F)CNC(=O)c1cnc(-c2ccc3cc(C#N)cnn23)cc1NC1C2CNCC1C2` (single isomer, unassigned) [Example 26]: the pEC50 in the experiment with TNFα (TNFα content) was 6.74. Further, the negative logarithm of the IC50 (pIC50) at IRAK4 enzyme (TR-FRET) was 8.52.

For the molecule `CC(C)(O)[C@H](F)CNC(=O)c1cnc(-c2ccc3cc(C#N)cnn23)cc1NC1C2CCC1CNC2` (single isomer, unassigned) [Example 27], in the experiment on TNFα (setting [1]), the pEC50 is 6.76. The pIC50 at IRAK4 enzyme (TR-FRET) is 8.70. On to `CC(C)(O)[C@H](F)CNC(=O)c1cnc(-c2ccc3cc(C#N)cnn23)cc1NC1C2CCC1CNC2` (single isomer, unassigned) [Example 28], for which the negative-log EC50 (pEC50) with TNFα (TNFα content) was 6.96. The same molecule had a negative-log IC50 (pIC50) on IRAK4 enzyme (TR-FRET) of over 9.00. Turning to `CC(C)(O)[C@H](F)CNC(=O)c1cnc(-c2ccc3cc(C#N)cnn23)cc1NC1CC1CO` (single isomer, unassigned) [Example 302], the pEC50 with TNFα (setting [1]) was 7.21. The molecule further had a negative logarithm of the IC50 (pIC50) against IRAK4 enzyme (TR-FRET) of 9.00.

For `CC(C)(O)[C@H](F)CNC(=O)c1cnc(-c2ccc3cc(C#N)cnn23)cc1NC1CCCC(S(C)(=O)=O)C1` (single isomer, unassigned) [Example 515], the pEC50 in the experiment on TNFα (setting [1]) was 6.28. At IRAK4 enzyme (TR-FRET (HTRF)), the pIC50 is 8.30.

With `CC(C)(O)[C@H](F)CNC(=O)c1cnc(-c2ccc3cc(C#N)cnn23)cc1NC1CCCC(S(C)(=O)=O)C1` (single isomer, unassigned) [Example 516], the negative logarithm of the EC50 (pEC50) with TNFα (TNFα content) is 6.23. The negative logarithm of the IC50 (pIC50) against IRAK4 enzyme (TR-FRET (HTRF)) was 8.70. For `CC(C)(O)[C@H](F)CNC(=O)c1cnc(-c2ccc3cc(C#N)cnn23)cc1NC1CCCC(S(C)(=O)=O)C1` (single isomer, unassigned) [Example 517], the negative logarithm of the EC50 (pEC50) in the experiment on TNFα (TNFα content) was 6.32. At IRAK4 enzyme (TR-FRET (HTRF)), the negative logarithm of the IC50 (pIC50) is over 9.00. As for `CC1(O)CCCC(Nc2cc(-c3ccc4cc(C#N)cnn34)ncc2C(=O)NC[C@@H](F)C(C)(C)O)C1` (single isomer, unassigned) [Example 528], in the experiment on TNFα (setting [1]), the pEC50 was 7.19. Besides, the negative logarithm of the IC50 (pIC50) on IRAK4 enzyme (TR-FRET (HTRF)) was 9.00. Turning to `CC1(O)CCCC(Nc2cc(-c3ccc4cc(C#N)cnn34)ncc2C(=O)NC[C@@H](F)C(C)(C)O)C1` (single isomer, unassigned) [Example 529], the pEC50 in the experiment with TNFα (TNFα content) is 7.21. Further, the pIC50 against IRAK4 enzyme (TR-FRET (HTRF)) was 9.00.

As for `CC(C)(O)[C@H](F)CNC(=O)c1cnc(-c2ccc3cc(C#N)cnn23)cc1NC1CC(Cc2cnco2)C1` (single isomer, unassigned) [Example 638], the pEC50 in the experiment with TNFα (TNFα content) was 7.59. The molecule also showed a pIC50 at IRAK4 enzyme (TR-FRET (HTRF)) of over 9.00.

Consider `CC(C)(O)[C@H](F)CNC(=O)c1cnc(-c2ccc3cc(C#N)cnn23)cc1NC1CC(Cc2cnco2)C1` (single isomer, unassigned) [Example 640], for which the pEC50 with TNFα (TNFα content) is 6.93. This molecule showed a pIC50 against IRAK4 enzyme (TR-FRET (HTRF)) of 9.00. The like results for `Cc1ncc(C2CCC(Nc3cc(-c4ccc5cc(C#N)cnn45)ncc3C(=O)NC[C@@H](F)C(C)(C)O)CC2)o1` (single isomer, unassigned) [Example 645] were, in that order, 6.52 and 8.00. Take `Cc1ncc(C2CCC(Nc3cc(-c4ccc5cc(C#N)cnn45)ncc3C(=O)NC[C@@H](F)C(C)(C)O)CC2)o1` (single isomer, unassigned) [Example 646]: the pEC50 with TNFα (TNFα content) was 7.82. Further, the pIC50 on IRAK4 enzyme (TR-FRET (HTRF)) is over 9.00. With `CC(C)(O)[C@H](F)CNC(=O)c1cnc(-c2ccc3cc(C#N)cnn23)cc1NC1Cc2ccncc2C1` (single isomer, unassigned) [Example 676], in the experiment on TNFα (setting [1]), the pEC50 is 7.09. On IRAK4 enzyme (TR-FRET (HTRF)), this molecule showed a pIC50 of 9.00. As for `CC(C)(O)[C@H](F)CNC(=O)c1cnc(-c2ccc3cc(C#N)cnn23)cc1NC1Cc2ccncc2C1` (single isomer, unassigned) [Example 677], in the experiment on TNFα (TNFα content), the negative-log EC50 (pEC50) is 7.27. The same molecule had a pIC50 on IRAK4 enzyme (TR-FRET (HTRF)) of over 9.00. In turn, `CC(C)Nc1cc(-c2ccc3cc(C#N)cnn23)ncc1C(=O)NC1(C)COC1` [Example 35, 6-(3-cyanopyrrolo[1,2-b]pyridazin-7-yl)-4-(isopropyl-amino)-N-(3-methyloxetan-3-yl) nicotinamide] had a negative logarithm of the IC50 (pIC50) at IRAK4 enzyme (TR-FRET) of 8.52. As for `CC(C)(O)[C@H](F)CNC(=O)c1cnc(-c2ccc3cc(C#N)cnn23)cc1NC1(CO)CC1` [Example 51, (R)-6-(3-cyanopyrrolo[1,2-b]pyridazin-7-yl)-N-(2-fluoro-3-hydroxy-3-methylbutyl)-4-((1-(hydroxymethyl)cyclopropyl)amino)nicotinamide], the pEC50 with TNFα (setting [1]) is 6.80. Same read-out and setting: as for `CC(C)Nc1cc(-c2ccc3cc(C#N)cnn23)ncc1C(=O)NCCC1COC1` [Example 52, 6-(3-cyanopyrrolo[1,2-b]pyridazin-7-yl)-4-(isopropylamino)-N-(2-(oxetan-3-yl)ethyl) nicotinamide], the figure is 7.07. The same measure, in the same setting: to `CC(C)(O)[C@H](F)CNC(=O)c1cnc(-c2ccc3cc(C#N)cnn23)cc1NC1CC1` [Example 55, (R)-6-(3-cyanopyrrolo[1,2-b]pyridazin-7-yl)-4-(cyclopropylamino)-N-(2-fluoro-3-hydroxy-3-methylbutyl) nicotinamide] belongs 7.55; to `CC(C)(O)[C@H](F)CNC(=O)c1cnc(-c2ccc3cc(C#N)cnn23)cc1NCCS(C)(=O)=O` [Example 102, (R)-6-(3-cyanopyrrolo[1,2-b]pyridazin-7-yl)-N-(2-fluoro-3-hydroxy-3-methylbutyl)-4-((2-(methylsulfonyl)ethyl)amino) nicotinamide], 6.50; to `CC(C)(O)[C@H](F)CNC(=O)c1cnc(-c2ccc3cc(C#N)cnn23)cc1Nc1nc2ccccc2s1` [Example 377], 6.37.

With `CNc1cc(-c2ccc3cc(C#N)cnn23)ncc1C(=O)NC[C@@H](F)C(C)(C)O` [Example 379, (R)-6-(3-cyanopyrrolo[1,2-b]pyridazin-7-yl)-N-(2-fluoro-3-hydroxy-3-methylbutyl)-4-(methyl-amino)nicotinamide], in the experiment with TNFα (setting [1]), the pEC50 is 7.24.

As for `N#Cc1cnn2c(-c3cc(N[C@H]4CCC[C@@H](O)C4)c(C(=O)NC4CCC(F)(F)CC4)cn3)ccc2c1` [Example 431, 6-(3-cyanopyrrolo[1,2-b]pyridazin-7-yl)-N-(4,4-difluorocyclohexyl)-4-(((1S,3R)-3-hydroxy-cyclohexyl)amino) nicotinamide], the negative-log EC50 (pEC50) in the experiment with TNFα (setting [1]) was 6.36.

Turning to `Cn1cc(Nc2cc(-c3ccc4cc(C#N)cnn34)ncc2C(=O)NC[C@@H](F)C(C)(C)O)ccc1=O` [Example 441, (R)-6-(3-cyanopyrrolo[1,2-b]pyridazin-7-yl)-N-(2-fluoro-3-hydroxy-3-methylbutyl)-4-((1-methyl-6-oxo-1,6-dihydropyridin-3-yl)amino)nicotinamide], the negative logarithm of the EC50 (pEC50) with TNFα (setting [1]) was 5.88. As to `CC(=O)NCC(F)(F)CNC(=O)c1cnc(-c2ccc3cc(C#N)cnn23)cc1NC(C)C` [Example 551, N-(3-acetamido-2,2-difluoropropyl)-6-(3-cyanopyrrolo[1,2-b]pyridazin-7-yl)-4-(isopropylamino)nicotinamide], the negative-log EC50 (pEC50) in the experiment with TNFα (setting [1]) is 6.09. Same read-out and setting: as for `CC(C)(O)[C@H](F)CNC(=O)c1cnc(-c2ccc3cc(C#N)cnn23)cc1Nc1cccc(OC(F)(F)F)c1` [Example 607, (R)-6-(3-cyanopyrrolo[1,2-b]pyridazin-7-yl)-N-(2-fluoro-3-hydroxy-3-methylbu1yl)-4-((3-(trifluoromethoxy)phenyl)amino)nicotinamide], the figure is 5.84.

For the molecule `CNC(=O)OC[C@@H]1C[C@H]1Nc1cc(-c2ccc3cc(C#N)cnn23)ncc1C(=O)NC[C@@H](F)C(C)(C)O` [Example 747], the pEC50 in the experiment on TNFα (setting [1]) is 6.77.

With `CC(C)(O)[C@H](F)CNC(=O)c1cnc(-c2ccc3cc(C#N)cnn23)cc1Nc1ccc(-n2nccn2)cc1` [Example 774, (R)-4-((4-(2H-1,2,3-triazol-2-yl)phenyl)amino)-6-(3-cyanopyrrolo[1,2-b]pyridazin-7-yl)-N-(2-fluoro-3-hydroxy-3-methylbutyl)nicotinamide], the pIC50 on IRAK4 enzyme (TR-FRET (HTRF)) was 8.70. With `CC(C)(O)[C@H](F)CNC(=O)c1cnc(-c2ccc3cc(C#N)cnn23)cc1Nc1cncc(OCC(F)F)c1` [Example 852, (R)-6-(3-cyanopyrrolo[1,2-b]pyridazin-7-yl)-4-((5-(2,2-difluoroethoxy)pyridin-3-yl)amino)-N-(2-fluoro-3-hydroxy-3-methylbutyl) nicotinamide], in the experiment on TNFα (Homo sapiens, Monocyte, TNFα by TR-FRET), the negative-log EC50 (pEC50) was 8.52. On to `CC(C)(O)[C@H](F)CNC(=O)c1cnc(-c2ccc3cc(C#N)cnn23)cc1Nc1cnc(-c2cn[nH]c2)nc1` [Example 969, (R)-4-((2-(1H-pyrazol-4-yl)pyrimidin-5-yl)amino)-6-(3-cyanopyrrolo[1,2-b]pyridazin-7-yl)-N-(2-fluoro-3-hydroxy-3-methyl-butyl)nicotinamide], for which the negative logarithm of the IC50 (pIC50) against IRAK4 enzyme (TR-FRET) is over 9.00. “(R)-4-((1H-benzo[d][1,2,3] triazol-5-yl)amino)-6-(3- cyanopyrrolo[1,2-b]pyridazin- 7-yl)-N-(2-fluoro-3- hydroxy-3-methylbutyl) nicotinamide [Example 569]”: the negative logarithm of the EC50 (pEC50) with TNFα (TNFα content) is under 5.00.

Usually pEC50 stands for the EC50 on a negative log10 scale, so that one unit is a factor of ten. As usually defined, the pIC50 is the IC50 on a negative log10 scale, so that one unit is a factor of ten. Low readings indicate a large IC50, high ones a small IC50.

(Values after patent publication US10336762B2 (priority 2017, dated 2019).)
